Read-outs that look alike come from different tables or passages of the source.
Tests used:
[1] = tested on: CYP3A4; conditions: in vitro; ref studies done by Ariad Pharmaceuticals; cited from earlier work
[2] = tested on: CYP3A5; conditions: in vitro; ref studies done by Ariad Pharmaceuticals; cited from earlier work
[3] = Phase I dose escalation: safety, tolerability, MTD, DLT and adverse events
[4] = Whole blood pharmacokinetics, LC-MS/MS, noncompartmental analysis; assay type: in vivo, patients; conditions: for half-life / AUC / Cmax / Vd / clearance: human, whole blood
[5] = in vivo
[6] = tested on: 4E-BP1 phosphorylated at Ser^65/Thr^70; test: 4E-BP1 phosphorylation in peripheral blood mononuclear cells; assay type: in vivo, patients; conditions: PBMC, 7 days after infusion, all doses
[7] = tested on: human tumor cell lines; conditions: cited from earlier work
[8] = Laboratory variables; assay type: in vivo; conditions: patients who received at least three doses; 95% CI −22.1 to −2.6
[9] = i.v. daily for 5 days every 2 weeks; ref 14 (Mita et al.); cited from earlier work
[10] = two multiple-dose toxicology studies in rats; ref nonclinical studies; cited from earlier work
[11] = tested on: target lesions (solid tumors); test: Tumor response by Response Evaluation Criteria in Solid Tumors; assay type: in vivo, patients
[12] = tested on: xenografts; conditions: cited from earlier work
[13] = dose level 6.25 mg, 2 patients entered
[14] = dose level 12.5 mg, 3 patients entered
[15] = dose level 25 mg, 4 patients entered
[16] = dose level 50 mg, 16 patients entered
[17] = dose level 75 mg, 17 patients entered
[18] = dose level 100 mg, 4 patients entered

CO[C@H]1C[C@@H]2CC[C@@H](C)[C@@](O)(O2)C(=O)C(=O)N2CCCC[C@H]2C(=O)O[C@H]([C@H](C)C[C@@H]2CC[C@@H](OP(C)(C)=O)[C@H](OC)C2)CC(=O)[C@H](C)/C=C(\C)[C@@H](O)[C@@H](OC)C(=O)[C@H](C)C[C@H](C)/C=C/C=C/C=C/1C [deforolimus]
metabolism by CYP3A4 [1]: primarily metabolized by CYP3A4 | metabolism by CYP3A5 [2]: to a lesser extent | Abdominal pain, number of adverse events, any grade ([3]; 6.25 mg (n = 2)): 0 | Anemia, number of adverse events, any grade ([3]; 6.25 mg (n = 2)): 0 | Anorexia, number of adverse events, any grade ([3]; 6.25 mg (n = 2)): 2 | Constipation, number of adverse events, any grade ([3]; 6.25 mg (n = 2)): 1 | Cough, number of adverse events, any grade ([3]; 6.25 mg (n = 2)): 0 | Diarrhea, number of adverse events, any grade ([3]; 6.25 mg (n = 2)): 1 | Dysgeusia, number of adverse events, any grade ([3]; 6.25 mg (n = 2)): 1 | Fatigue, number of adverse events, any grade ([3]; 6.25 mg (n = 2)): 2 | Hyperglycemia, number of adverse events, any grade ([3]; 6.25 mg (n = 2)): 0 | Hypophosphatemia, number of adverse events, any grade ([3]; 6.25 mg (n = 2)): 0 | Mucosal inflammation, number of adverse events, any grade ([3]; 6.25 mg (n = 2)): 0 | Anemia, number of adverse events, any grade ([3]; 12.5 mg (n = 3)): 1 | Anorexia, number of adverse events, any grade ([3]; 12.5 mg (n = 3)): 2 | Constipation, number of adverse events, any grade ([3]; 12.5 mg (n = 3)): 2 | Cough, number of adverse events, any grade ([3]; 12.5 mg (n = 3)): 0 | Diarrhea, number of adverse events, any grade ([3]; 12.5 mg (n = 3)): 2 | Dysgeusia, number of adverse events, any grade ([3]; 12.5 mg (n = 3)): 0 | Fatigue, number of adverse events, any grade ([3]; 12.5 mg (n = 3)): 2 | Hyperglycemia, number of adverse events, any grade ([3]; 12.5 mg (n = 3)): 0 | Hypophosphatemia, number of adverse events, any grade ([3]; 12.5 mg (n = 3)): 0 | Mucosal inflammation, number of adverse events, any grade ([3]; 12.5 mg (n = 3)): 1 | Abdominal pain, number of adverse events, any grade ([3]; 25 mg (n = 4)): 0 | Anemia, number of adverse events, any grade ([3]; 25 mg (n = 4)): 1 | Anorexia, number of adverse events, any grade ([3]; 25 mg (n = 4)): 4 | Constipation, number of adverse events, any grade ([3]; 25 mg (n = 4)): 2 | Cough, number of adverse events, any grade ([3]; 25 mg (n = 4)): 0 | Diarrhea, number of adverse events, any grade ([3]; 25 mg (n = 4)): 2 | Dysgeusia, number of adverse events, any grade ([3]; 25 mg (n = 4)): 0 | Fatigue, number of adverse events, any grade ([3]; 25 mg (n = 4)): 3 | Hyperglycemia, number of adverse events, any grade ([3]; 25 mg (n = 4)): 0 | Hypophosphatemia, number of adverse events, any grade ([3]; 25 mg (n = 4)): 0 | Mucosal inflammation, number of adverse events, any grade ([3]; 25 mg (n = 4)): 1 | Anemia, number of adverse events grade 3 or 4 ([3]; 50 mg (n = 16)): 1 | Anemia, number of adverse events, any grade ([3]; 50 mg (n = 16)): 5 | Dysgeusia, number of adverse events, any grade ([3]; 50 mg (n = 16)): 3 | Hyperglycemia, number of adverse events grade 3 or 4 ([3]; 50 mg (n = 16)): 2 | Hyperglycemia, number of adverse events, any grade ([3]; 50 mg (n = 16)): 5 | Hypophosphatemia, number of adverse events grade 3 or 4 ([3]; 50 mg (n = 16)): 3 | Hypophosphatemia, number of adverse events, any grade ([3]; 50 mg (n = 16)): 4 | patients discontinued from the study due to adverse events ([3]; 50 mg dose level): 3 patients | Abdominal pain, number of adverse events grade 3 or 4 ([3]; 75 mg (n = 17)): 1 | Abdominal pain, number of adverse events, any grade ([3]; 75 mg (n = 17)): 5 | Cough, number of adverse events, any grade ([3]; 75 mg (n = 17)): 3 | Hyperglycemia, number of adverse events grade 3 or 4 ([3]; 75 mg (n = 17)): 4 | Hyperglycemia, number of adverse events, any grade ([3]; 75 mg (n = 17)): 5 | Mucosal inflammation, number of adverse events, any grade ([3]; 75 mg (n = 17)): 12 | patients discontinued from the study due to adverse events ([3]; 75 mg dose level): 3 patients | patients who developed grade 1 to 2 mucositis ([3]; 75 mg dose level (17 patients)): Twelve | Abdominal pain, number of adverse events grade 3 or 4 ([3]; 100 mg (n = 4)): 1 (1) | Abdominal pain, number of adverse events, any grade ([3]; 100 mg (n = 4)): 1 (1) | Anemia, number of adverse events, any grade ([3]; 100 mg (n = 4)): 1 | Anorexia, number of adverse events, any grade ([3]; 100 mg (n = 4)): 3 | Constipation, number of adverse events, any grade ([3]; 100 mg (n = 4)): 3 | Cough, number of adverse events, any grade ([3]; 100 mg (n = 4)): 1 | Diarrhea, number of adverse events, any grade ([3]; 100 mg (n = 4)): 2 | Dysgeusia, number of adverse events, any grade ([3]; 100 mg (n = 4)): 1 | Fatigue, number of adverse events, any grade ([3]; 100 mg (n = 4)): 3 | Hyperglycemia, number of adverse events, any grade ([3]; 100 mg (n = 4)): 0 | Hypophosphatemia, number of adverse events grade 3 or 4 ([3]; 100 mg (n = 4)): 1 (1) | Hypophosphatemia, number of adverse events, any grade ([3]; 100 mg (n = 4)): 1 (1) | Mucosal inflammation, number of adverse events grade 3 or 4 ([3]; 100 mg (n = 4)): 1 | Mucosal inflammation, number of adverse events, any grade ([3]; 100 mg (n = 4)): 4 | patients who required dosing delays and/or dose reduction secondary to mucositis ([3]; 100 mg dose level): 3 of 4 | patients who experienced mucositis ([3]; 100 mg dose level (4 patients)): 4 patients | patients with mucositis grade ≥3 ([3]; 100 mg dose level (4 patients)): 1 patients | patients who experienced an adverse event grade ≥3 ([3]; all 46 patients): 70% | patients who required interruption of treatment or dose reduction on at least one occasion ([3]; all 46 patients): Twenty-eight | deaths thought to be related to deforolimus ([3]; all patients): no deaths thought to be related to deforolimus | patients with serious adverse events ([3]; all patients): 22 patients | serious adverse events ([3]; all patients): Thirty-two | incidence of hypercholesterolemia ([3]; all patients, weekly schedule): 7% | incidence of hyperglycemia ([3]; all patients, weekly schedule): 22% | incidence of hypertriglyceridemia ([3]; all patients, weekly schedule): 9% | No. patients requiring dose interruptions or reductions [3, 13]: 0 | No. patients requiring dose reductions [3, 13]: 0 | No. patients requiring dose interruptions or reductions, at least possibly related to deforolimus ([3]; dose level 12.5 mg): 0 | No. patients requiring dose interruptions or reductions [3, 14]: 2 | No. patients requiring dose reductions [3, 14]: 0 | No. patients requiring dose interruptions or reductions, at least possibly related to deforolimus ([3]; dose level 25 mg): 0 | No. patients requiring dose interruptions or reductions [3, 15]: 3 | No. patients requiring dose reductions [3, 15]: 0 | No. patients requiring dose interruptions or reductions, at least possibly related to deforolimus ([3]; dose level 50 mg): 5 | No. patients requiring dose interruptions or reductions [3, 16]: 8 | No. patients requiring dose reductions [3, 16]: 3 | No. patients requiring dose interruptions or reductions, at least possibly related to deforolimus ([3]; dose level 75 mg): 9 | No. patients requiring dose interruptions or reductions [3, 17]: 12 | No. patients requiring dose reductions [3, 17]: 2 | No. patients requiring dose interruptions or reductions, at least possibly related to deforolimus ([3]; dose level 100 mg): 3 (3) | No. patients requiring dose interruptions or reductions [3, 18]: 3 (3) | No. patients requiring dose reductions [3, 18]: 2 | main dose-limiting toxicity (DLT) ([3]; i.v. once weekly): mucositis | maximum tolerated dose (MTD) ([3]; i.v. over 30 min every 7 days, flat dosing): 75 mg | treatment discontinuations thought to be possibly, probably or definitely related to the study drug ([3]; of six patients with treatment discontinued): 4 patients | factor of increase in odds of more severe mucositis per 10 mg increase in dose ([3]; proportional odds model, univariate, 95% CI 1.21–2.07): 1.58 | dose proportionality of AUC ([4]; dose range 6.25 to 100 mg): increased less than proportionally with an increase in dose | dose proportionality of Cmax ([4]; dose range 6.25 to 100 mg): increased less than proportionally with an increase in dose | half-life ([4]; intravenous): 45 to 52 h | AUC ([4]; iv, 6.25 mg): 3800 ng·h/mL | Cmax ([4]; iv, 6.25 mg): 329 ng/mL | Vd ([4]; iv, 6.25 mg): 80.3 L | clearance ([4]; iv, 6.25 mg): 28.3 mL/min | half-life ([4]; iv, 6.25 mg): 52.2 h | AUC ([4]; iv, 12.5 mg): 5100 ng·h/mL | Cmax ([4]; iv, 12.5 mg): 394 ng/mL | Vd ([4]; iv, 12.5 mg): 111 L | clearance ([4]; iv, 12.5 mg): 45 mL/min | AUC ([4]; iv, 25 mg): 9000 ng·h/mL | Cmax ([4]; iv, 25 mg): 570 ng/mL | Vd ([4]; iv, 25 mg): 136 L | clearance ([4]; iv, 25 mg): 48.3 mL/min | half-life ([4]; iv, 25 mg): 46.2 h | AUC ([4]; iv, 50 mg): 10700 ng·h/mL | Cmax ([4]; iv, 50 mg): 982 ng/mL | Vd ([4]; iv, 50 mg): 235 L | clearance ([4]; iv, 50 mg): 81.7 mL/min | half-life ([4]; iv, 50 mg): 44.9 h | AUC ([4]; iv, 75 mg): 12700 ng·h/mL | Cmax ([4]; iv, 75 mg): 1200 ng/mL | Vd ([4]; iv, 75 mg): 323 L | clearance ([4]; iv, 75 mg): 107 mL/min | half-life ([4]; iv, 75 mg): 47.3 h | AUC ([4]; iv, 100 mg): 13400 ng·h/mL | Cmax ([4]; iv, 100 mg): 1260 ng/mL | Vd ([4]; iv, 100 mg): 373 L | clearance ([4]; iv, 100 mg): 128 mL/min | half-life ([4]; iv, 100 mg): 46 h | clearance difference, greater in females, estimated from the model ([4]; regression model with dose and gender, SE 0.41): 1.49 L/h | Abdominal pain, number of adverse events, any grade ([5]; human): 14 | Nausea, number of adverse events, any grade ([5]; human): 26 | Rash, number of adverse events, any grade ([5]; human): 22 | incidence of anorexia ([5]; human): 67% | incidence of diarrhea ([5]; human): 50% | incidence of fatigue ([5]; human): 76% | incidence of mucositis ([5]; human): 63% | incidence of nausea ([5]; human): 57% | patients who experienced an adverse event ([5]; human): 46 patients | tolerability of the dose level [5]: intolerable | median inhibition of 4E-BP1 phosphorylation [6]: > 70% | effect on proliferation of human tumor cell lines [7]: inhibits proliferation | estimated slope of nadir platelet count versus dose [8]: −12.3 × 10^3/μL per 10 mg increase i | incidence of hypercholesterolemia [9]: 28% | incidence of hyperglycemia [9]: 28% | incidence of hypertriglyceridemia [9]: 41% | no effect dose level / severely toxic dose level [10]: neither a no effect dose level nor a severely toxic dose level was identified | patients with disease progression ([11]; 34 evaluable, after two cycles): 12 patients | patients with stable disease ([11]; 34 evaluable, after two cycles): 21 patients | patients with partial response ([11]; 34 patients evaluable for response): 1 patient | correlation r, AUC versus percent change in sum of target lesions ([11]; after two cycles, n = 32, P = 0.015): −0.43 | correlation r, dose versus percent change in sum of target lesions ([11]; after two cycles, n = 33, P = 0.28): −0.19 | shrinkage in target lesions ([11]; one patient with transitional cell carcinoma of the bladder, after two cycles): 34% | effect on proliferation of xenografts [12]: inhibits proliferation

CO[C@H]1C[C@@H]2CC[C@@H](C)[C@@](O)(O2)C(=O)C(=O)N2CCCC[C@H]2C(=O)O[C@H]([C@H](C)C[C@@H]2CC[C@@H](O)[C@H](OC)C2)CC(=O)[C@H](C)/C=C(\C)[C@@H](O)[C@@H](OC)C(=O)[C@H](C)C[C@H](C)/C=C/C=C/C=C/1C [sirolimus, reference compound]
metabolism by CYP3A4 [1]: primarily metabolized by CYP3A4
